For this experiment, the target named is T1, retinoic acid receptor-related orphan receptor γ (RORγ) (Homo sapiens, UniProt P51449).
T1 sequence (P51449 265-507 limits assumed): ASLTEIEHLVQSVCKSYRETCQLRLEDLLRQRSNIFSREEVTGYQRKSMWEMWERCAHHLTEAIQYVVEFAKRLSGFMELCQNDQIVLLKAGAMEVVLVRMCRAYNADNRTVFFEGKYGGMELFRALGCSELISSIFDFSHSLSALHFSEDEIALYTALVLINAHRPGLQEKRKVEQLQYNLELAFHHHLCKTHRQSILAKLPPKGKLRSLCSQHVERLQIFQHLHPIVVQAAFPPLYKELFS
It counts as binding.

Data on one compound can be found in PMC3331898 (2012).

With `C[C@H]1O[C@@H](O[C@H]2[C@@H](O)C[C@H](O[C@H]3[C@@H](O)C[C@H](O[C@H]4CC[C@@]5(C)[C@H](CC[C@@H]6[C@@H]5C[C@@H](O)[C@]5(C)[C@@H](C7=CC(=O)OC7)CC[C@]65O)C4)O[C@@H]3C)O[C@@H]2C)C[C@H](O)[C@@H]1O` [digoxin], the “differential HDX mass spectrometry” value is “HDX) mass spectrometry analysis of the RORγ LBD in the presence and absence of digoxin, T1317, or SR2211”.
